Laboratory results from PMC12655252, “Synthesis of 1H-Pyrrolo[3,2-g]isoquinoline Derivatives as Ligands Targeting Haspin Kinase” (Molecules, 2025).

How the values were obtained:
CDK5/p25 = target: T1, CDK5/p25 (Homo sapiens, UniProt Q00535); experiment: ADP-Glo in vitro kinase inhibition assay, CDK5/p25; format: biochemical; settings: 10 μM ATP, read-out: CDK5 % residual activity; for remaining activity at 1 µM: 1 μM compound; for remaining activity at 10 µM: 10 μM compound
T1 construct: made in house; host or cells: bacteria
Method: We previouly reported that substitution at the 3-position with halogen atoms or pyridinyl or formyl groups was compatible with high potency toward Haspin kinase. To check if the current structural changes were in line with potent Haspin inhibition and high selectivity, enabling consideration of these compounds as possible targeting ligands for the PROTAC approach, compounds 2, 3, 8–11, and 15–17 were evaluated toward a panel of eight protein kinases, including Haspin, as well as other kinases known to be frequently cross-inhibited (CLK1, DYRK1A, CDK9/Cyclin T, GSK-3β, CK1ε, CDK5/p25, and Pim1) (Table 1). The percentage of residual kinase activity was evaluated at 10 μM and 1 μM compound concentrations. […].
Kinase inhibition was tested in 384-well plates using the ADP-GloTM assay kit (Promega, Madison, WI, USA) according to the procedure recommended by the manufacturer. Reactions were set up in a final volume of 6 μL in an appropriate kinase buffer (10 mM MgCl2, 1 mM EGTA, 1 mM DTT, 25 mM Tris-HCl pH 7.5, 50 μg/mL heparin) with either protein or peptide as the substrate in the presence of 10 μM ATP. To stop the kinase reaction, 6 μL of ADP-GloTM Kinase Reagent was added after 30 min at 30 °C. Then, after 50 min of incubation at room temperature (RT), 12 μL of Kinase Detection Reagent was added. The transmitted signal was measured after 1 h at RT using the Envision (Perkin Elmer, Waltham, MA, USA) microplate luminometer and expressed in relative light units (RLU). In order to determine the half-maximal inhibitory concentration (IC50), all assays were performed in duplicate in the absence or presence of increasing doses of the tested compounds. GraphPad Prism10 software (GraphPad Software, San Diego, CA, USA) was used to fit dose–response curves and to determine the IC50 values. Kinase activities are given as percentages of maximal activity, i.e., measured in the absence of inhibitor. Peptide substrates were obtained from Proteogenix (Schiltigheim, France).
The following protein kinases were analyzed in this study: CDK5/p25 (human, vector pGEX-2T, expressed in bacteria; kindly provided by Dr. J. H. Wang) was assayed with 0.8 μg/μL of histone H1 as substrate; HsCDK9/CyclinT (NP_001252/KAI4065659, cloned in pTEFb vector, expressed by baculovirus in Sf9 insect cells) were assayed with 0.27 μg/μL of the following peptide: […], as substrate; HsCK1ε (NP_001885, cloned in pFAST-BAC vector, expressed in Sf9 insect cells) was assayed with 0.022 μg/μL of the following peptide: […]pAYSITA (“Sp” stands for phosphorylated serine) as CK1-specific substrate; HsGSK3β (AAH12760, cloned in pFAST-BAC, expressed by baculovirus in Sf9 insect cells) were assayed with 0.010 μg/μL of GS-1 peptide, a GSK-3-selective substrate ([…]pEDEEE); HsHaspin-kd (NP_114171, kinase domain, amino acids 470–798 cloned in pGEX-6P-3, expressed in bacteria) was assayed with 0.007 μg/μL of histone H3 (1–21) peptide ([…]) as substrate; Pim-1 (KAI4018123, expressed in bacteria) was assayed with 0.8 μg/μL of histone H1 as substrate; HsCLK1 (NP_004062, cloned in pFAST-BAC, expressed in Sf9 insect cells) was assayed with 0.027 μg/μL of the peptide: […]; RnDYRK1A-kd (Rattus norvegicus, amino acids 1–499, pGEX-2TK, expressed in bacteria, gift from Dr. W. Becker, Aachen, Germany) was tested in the presence of 0.033 μg/μL of the peptide: […].

[1] = system: endogenous Haspin kinase (phosphorylation of Histone H3 on Thr3) in U2OS cells; experiment: H3T3ph immunofluorescence assay in U2OS cells (cellular endogenous Haspin activity); format: cell-based; settings: 2.5 μM compound, 16 h, early mitotic cells; for inhibition at 2.5 µM: Homo sapiens, read-out: Inhibition of endogenous Haspin activity (H3T3 phosphorylation) compared to DMSO control
Method: In order to assess the ability of our most interesting compounds to inhibit cellular endogenous Haspin kinase, we evaluated their effects on the phosphorylation of Histone H3 on Thr3, a bona fide Haspin substrate (Figure 4). We treated osteosarcoma U2OS cells with 2.5 μM of selected compounds for 16 h before quantifying H3T3 phosphorylation by immunofluorescence on early mitotic cells (Figure 4A,B). […] This discrepency could be explained by the inability of this compound to cross the plasma membrane or by reduced stability in a cellular environment.
Ethical approval for this study was obtained (9 July 2025) from DGRI-LabOGM (APPROVAL NUMBER: L1-2373). U2OS cells (purchased from ATCC, Manassas, VA, USA, reference HTB-96) were grown in DMEM medium (Dulbecco’s Modified Eagle Medium, High glucose; GlutaMAX, Life Technologies, Carlsbad, CA, USA) supplemented with 10% fetal bovine serum (Gibco, Grand Island, NY, USA) in a 5% CO2 humidified atmosphere. Cells grown on coverslips were treated for 16 h with each compound or 0.025% DMSO, then fixed with 4% paraformaldehyde in PBS, permeabilized by 0.15% Triton-X100 for 2 min, and blocked for 12 min in 4% BSA in PBS. Immunofluorescence assay was performed using standard protocols with a rabbit anti-phospho-Thr3 Histone H3 and a mouse anti-a-Tubulin (B-5-1-2) obtained from Merck Millipore, Burlington, MA, USA (1/2000 dilution). Coverslips were mounted with Vectashield containing DAPI (Vector Laboratories, Newark, CA, USA). Images were acquired with a Coolsnap HQ2 CCD camera (Photometrics, Tucson, AZ, USA) on a Zeiss Axio microscope (Carl Zeiss, Oberkochen, Germany) using a 63x NA 1.46 objective. Image acquisition and processing were performed using Zen Blue (Carl Zeiss). The H3T3ph signal on chromosomes was normalized against the DAPI signal and analyzed using ImageJ software (NIH, Version 1.54p). Graphs were produced and statistical analysis was performed using GraphPad Prism 10. p-values were determined by t-test; n.s., not significant; **** p ≤ 0.0001.
Figure 4 Evaluation of selected compounds on cellular endogenous Haspin activity. (A) U2OS cells were treated with 2.5 μM of each compound or 1 μM of CHR6494 (CHR) or DMSO for 16 h. Immunofluorescence assay was performed with anti-pH3T3 antibody (green) and anti-a-Tubulin (red); DNA was labelled with DAPI (blue). Representative images of early mitotic cells for each condition are presented. Scale bar: 5 μm. (B) Scatter plot representing H3T3ph/DAPI signal ratio indicative of Haspin activity; n > 17 mitotic cells per condition. n.s., not significant; **** p ≤ 0.0001.

T1 sequence (Q00535 whole entry): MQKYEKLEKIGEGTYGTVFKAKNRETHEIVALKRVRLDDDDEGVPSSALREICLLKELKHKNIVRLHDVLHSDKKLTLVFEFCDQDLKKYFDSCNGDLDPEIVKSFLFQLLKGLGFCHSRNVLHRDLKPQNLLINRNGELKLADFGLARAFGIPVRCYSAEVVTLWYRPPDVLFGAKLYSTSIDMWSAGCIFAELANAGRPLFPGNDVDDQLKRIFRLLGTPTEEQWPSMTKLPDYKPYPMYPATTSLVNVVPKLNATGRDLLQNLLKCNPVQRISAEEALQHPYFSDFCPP
T1 sequence (Q15078 99-307 partner limits assumed): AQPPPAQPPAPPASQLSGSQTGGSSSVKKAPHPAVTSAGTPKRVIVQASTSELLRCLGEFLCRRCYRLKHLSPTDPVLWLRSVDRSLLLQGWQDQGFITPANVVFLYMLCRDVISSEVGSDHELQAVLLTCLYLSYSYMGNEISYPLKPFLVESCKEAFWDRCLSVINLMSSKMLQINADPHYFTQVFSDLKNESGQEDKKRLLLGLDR

Compound | remaining activity at 1 µM (CDK5/p25) [%] | remaining activity at 10 µM (CDK5/p25) [%] | inhibition at 2.5 µM [1] [%] | Inhibition of endogenous Haspin activity (H3T3 phosphorylation) compared to DMSO control [1]
Nc1ccc(-c2c[nH]c3cc4cnccc4cc23)cn1 [Compound 3, 5-(1H-Pyrrolo[3,2-g]isoquinolin-3-yl)pyridin-2-amine] | 100 | 100 | ~43 | 
COC(=O)/C=C/c1c[nH]c2cc3cnccc3cc12 [Compound 8, Methyl (E)-3-(1H-Pyrrolo[3,2-g]isoquinolin-3-yl)prop-2-enoate] | 72 | 100 |  | did not show any significant inhibitory potential
c1cc2cc3c(-c4cc[nH]n4)c[nH]c3cc2cn1 [Compound 15, 3-(1H-Pyrazol-3-yl)-1H-pyrrolo[3,2-g]isoquinoline] | 98 | 76 | 66 | 
c1cc2cc3c(-c4cn[nH]c4)c[nH]c3cc2cn1 [Compound 16, 3-(1H-Pyrazol-4-yl)-1H-pyrrolo[3,2-g]isoquinoline] | 91 | 10 | 77 | 
c1c[nH]c(-c2c[nH]c3cc4cnccc4cc23)c1 [Compound 17, 3-(1H-Pyrrol-2-yl)-1H-pyrrolo[3,2-g]isoquinoline] | 75 | 81 | ~43 | 
